Assay results published in ChEMBL document CHEMBL4004889, “Discovery of selective ATP-competitive eIF4A3 inhibitors” (Bioorg Med Chem, 2017).

Tests used:
[1] = biological target: T1, Eukaryotic initiation factor 4A-III (Homo sapiens, UniProt P38919); assay: Inhibition of MLN51-induced full length recombinant human N-terminal His6/SUMO-tagged eIF4A3 RNA dependent ATPase activity expressed in Escherichia coli BL21(DE3) using 60 ug/ml single stranded poly(U) RNA as substrate after 30 mins by ADP-Glo luminescence assay
[2] = biological target: T1, Eukaryotic initiation factor 4A-III; assay: Binding affinity to full length recombinant human N-terminal His6/SUMO-tagged eIF4A3 expressed in Escherichia coli BL21(DE3) administered for 60 to 120 secs by surface plasmon resonance biosensing assay
[3] = biological target: Eukaryotic initiation factor 4A-I (Homo sapiens, UniProt P60842); assay: Inhibition of eIF4G-induced full length recombinant human N-terminal His6/SUMO-tagged eIF4A1 RNA dependent ATPase activity expressed in Escherichia coli BL21(DE3) using single stranded poly(U) RNA as substrate after 40 mins by ADP-Glo luminescence assay
[4] = biological target: Eukaryotic initiation factor 4A-II (Homo sapiens, UniProt Q14240); assay: Inhibition of eIF4G-induced eIF4A2 (unknown origin) RNA dependent ATPase activity expressed in Escherichia coli BL21(DE3) using single stranded poly(U) RNA as substrate after 40 mins by ADP-Glo luminescence assay
[5] = biological target: T2, ATP-dependent RNA helicase DHX29 (Homo sapiens, UniProt Q7Z478); assay: Inhibition of full length recombinant human N-terminal FLAG-His-tagged DHX29 RNA dependent ATPase activity expressed in baculovirus infected Sf9 insect cells using single stranded poly(U) RNA as substrate after 30 mins by ADP-Glo luminescence assay
T2 sequence (Q7Z478 whole entry): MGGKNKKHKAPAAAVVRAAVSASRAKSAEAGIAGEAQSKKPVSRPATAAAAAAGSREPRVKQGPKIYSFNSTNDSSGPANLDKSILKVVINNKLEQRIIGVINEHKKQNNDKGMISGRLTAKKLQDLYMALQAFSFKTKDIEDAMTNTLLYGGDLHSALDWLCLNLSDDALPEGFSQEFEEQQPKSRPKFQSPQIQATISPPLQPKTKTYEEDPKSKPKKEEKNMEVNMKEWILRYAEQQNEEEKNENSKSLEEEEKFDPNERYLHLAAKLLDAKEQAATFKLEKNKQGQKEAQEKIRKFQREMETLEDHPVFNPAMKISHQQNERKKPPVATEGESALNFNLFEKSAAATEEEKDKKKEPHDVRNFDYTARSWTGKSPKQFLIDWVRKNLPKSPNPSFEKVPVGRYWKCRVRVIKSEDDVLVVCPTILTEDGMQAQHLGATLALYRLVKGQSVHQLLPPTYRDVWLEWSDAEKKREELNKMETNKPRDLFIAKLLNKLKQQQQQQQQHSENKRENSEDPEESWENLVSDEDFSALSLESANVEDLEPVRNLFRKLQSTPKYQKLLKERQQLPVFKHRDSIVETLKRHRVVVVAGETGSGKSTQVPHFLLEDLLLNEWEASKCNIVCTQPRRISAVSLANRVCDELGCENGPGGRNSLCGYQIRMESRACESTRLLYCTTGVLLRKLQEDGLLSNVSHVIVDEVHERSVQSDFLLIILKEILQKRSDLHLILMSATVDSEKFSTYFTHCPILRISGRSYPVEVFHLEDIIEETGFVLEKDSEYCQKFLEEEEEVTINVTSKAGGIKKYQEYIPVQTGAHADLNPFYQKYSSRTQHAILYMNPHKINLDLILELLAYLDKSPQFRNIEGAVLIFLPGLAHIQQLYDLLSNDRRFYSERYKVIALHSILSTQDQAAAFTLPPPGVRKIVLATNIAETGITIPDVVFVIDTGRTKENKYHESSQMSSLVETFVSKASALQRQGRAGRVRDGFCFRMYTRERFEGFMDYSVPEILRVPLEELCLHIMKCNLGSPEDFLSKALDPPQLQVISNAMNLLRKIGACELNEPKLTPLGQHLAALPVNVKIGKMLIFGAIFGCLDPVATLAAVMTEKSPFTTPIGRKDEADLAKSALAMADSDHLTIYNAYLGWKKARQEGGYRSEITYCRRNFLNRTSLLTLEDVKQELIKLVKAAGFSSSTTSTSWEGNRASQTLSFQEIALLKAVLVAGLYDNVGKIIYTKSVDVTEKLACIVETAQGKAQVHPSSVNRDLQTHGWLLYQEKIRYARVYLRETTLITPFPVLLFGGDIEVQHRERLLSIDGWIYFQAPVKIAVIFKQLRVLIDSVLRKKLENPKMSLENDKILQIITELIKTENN

[6] = biological target: U5 small nuclear ribonucleoprotein 200 kDa helicase (Homo sapiens, UniProt O75643); assay: Inhibition of full length recombinant human N-terminal His-tagged BRR2 RNA dependent ATPase activity expressed in baculovirus infected Sf9 insect cells using single stranded poly(U) RNA as substrate after 30 mins by ADP-Glo luminescence assay
[7] = biological target: T1, Eukaryotic initiation factor 4A-III; assay: ATP competitive inhibition of MLN51-induced full length recombinant human N-terminal His6/SUMO-tagged eIF4A3 expressed in Escherichia coli BL21(DE3) using varying ATP levels after 30 mins by ADP-Glo luminescence assay
[8] = biological target: T1, Eukaryotic initiation factor 4A-III; assay: Inhibition of MLN51-induced full length recombinant human N-terminal His6/SUMO-tagged eIF4A3 expressed in Escherichia coli BL21(DE3) using 1.5 ug/ml single stranded poly(U) RNA after 45 mins by ADP-Glo luminescence assay
[9] = biological target: T1, Eukaryotic initiation factor 4A-III; assay: Binding affinity to full length recombinant human N-terminal His6/SUMO-tagged eIF4A3 expressed in Escherichia coli BL21(DE3) by isothermal titration calorimetric method
[10] = biological target: T1, Eukaryotic initiation factor 4A-III
Description: Binding affinity to full length recombinant human N-terminal His6/SUMO-tagged eIF4A3 expressed in Escherichia coli BL21(DE3) assessed as change in enthalpy by isothermal titration calorimetric method

[11] = biological target: T1, Eukaryotic initiation factor 4A-III; remark: listed apart in the source
Description: Binding affinity to full length recombinant human N-terminal His6/SUMO-tagged eIF4A3 expressed in Escherichia coli BL21(DE3) assessed as dissociation half-life administered for 60 to 120 secs by surface plasmon resonance biosensing assay

[12] = biological target: T1, Eukaryotic initiation factor 4A-III; remark: listed apart in the source
Description: Binding affinity to full length recombinant human N-terminal His6/SUMO-tagged eIF4A3 expressed in Escherichia coli BL21(DE3) assessed as change in Gibbs free energy by isothermal titration calorimetric method

[13] = biological target: T1, Eukaryotic initiation factor 4A-III; remark: listed apart in the source
Description: Binding affinity to full length recombinant human N-terminal His6/SUMO-tagged eIF4A3 expressed in Escherichia coli BL21(DE3) assessed as change in entropy by isothermal titration calorimetric method

Chain of Eukaryotic initiation factor 4A-I (P60842 whole entry): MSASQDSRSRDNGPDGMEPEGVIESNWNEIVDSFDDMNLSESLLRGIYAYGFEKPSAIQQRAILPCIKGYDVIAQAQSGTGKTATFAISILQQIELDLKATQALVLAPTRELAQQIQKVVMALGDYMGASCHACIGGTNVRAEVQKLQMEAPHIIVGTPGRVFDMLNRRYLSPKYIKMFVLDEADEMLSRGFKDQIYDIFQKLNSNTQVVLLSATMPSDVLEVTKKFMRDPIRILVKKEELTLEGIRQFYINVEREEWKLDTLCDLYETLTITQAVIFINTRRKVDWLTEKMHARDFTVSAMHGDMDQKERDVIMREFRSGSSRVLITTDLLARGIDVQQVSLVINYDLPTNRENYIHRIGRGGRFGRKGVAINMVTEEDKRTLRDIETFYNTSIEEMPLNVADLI
T1 sequence (P38919 whole entry): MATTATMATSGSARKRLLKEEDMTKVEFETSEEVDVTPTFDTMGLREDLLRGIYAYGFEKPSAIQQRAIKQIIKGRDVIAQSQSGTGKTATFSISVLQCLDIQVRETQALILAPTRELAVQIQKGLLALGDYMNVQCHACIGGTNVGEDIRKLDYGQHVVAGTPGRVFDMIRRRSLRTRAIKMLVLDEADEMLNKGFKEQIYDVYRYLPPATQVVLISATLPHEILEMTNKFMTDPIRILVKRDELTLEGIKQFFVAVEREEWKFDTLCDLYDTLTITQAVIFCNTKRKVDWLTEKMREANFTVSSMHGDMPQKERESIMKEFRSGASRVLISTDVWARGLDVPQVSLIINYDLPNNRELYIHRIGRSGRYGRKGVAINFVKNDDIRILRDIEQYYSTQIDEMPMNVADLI
Chain of U5 small nuclear ribonucleoprotein 200 kDa helicase (O75643 whole entry): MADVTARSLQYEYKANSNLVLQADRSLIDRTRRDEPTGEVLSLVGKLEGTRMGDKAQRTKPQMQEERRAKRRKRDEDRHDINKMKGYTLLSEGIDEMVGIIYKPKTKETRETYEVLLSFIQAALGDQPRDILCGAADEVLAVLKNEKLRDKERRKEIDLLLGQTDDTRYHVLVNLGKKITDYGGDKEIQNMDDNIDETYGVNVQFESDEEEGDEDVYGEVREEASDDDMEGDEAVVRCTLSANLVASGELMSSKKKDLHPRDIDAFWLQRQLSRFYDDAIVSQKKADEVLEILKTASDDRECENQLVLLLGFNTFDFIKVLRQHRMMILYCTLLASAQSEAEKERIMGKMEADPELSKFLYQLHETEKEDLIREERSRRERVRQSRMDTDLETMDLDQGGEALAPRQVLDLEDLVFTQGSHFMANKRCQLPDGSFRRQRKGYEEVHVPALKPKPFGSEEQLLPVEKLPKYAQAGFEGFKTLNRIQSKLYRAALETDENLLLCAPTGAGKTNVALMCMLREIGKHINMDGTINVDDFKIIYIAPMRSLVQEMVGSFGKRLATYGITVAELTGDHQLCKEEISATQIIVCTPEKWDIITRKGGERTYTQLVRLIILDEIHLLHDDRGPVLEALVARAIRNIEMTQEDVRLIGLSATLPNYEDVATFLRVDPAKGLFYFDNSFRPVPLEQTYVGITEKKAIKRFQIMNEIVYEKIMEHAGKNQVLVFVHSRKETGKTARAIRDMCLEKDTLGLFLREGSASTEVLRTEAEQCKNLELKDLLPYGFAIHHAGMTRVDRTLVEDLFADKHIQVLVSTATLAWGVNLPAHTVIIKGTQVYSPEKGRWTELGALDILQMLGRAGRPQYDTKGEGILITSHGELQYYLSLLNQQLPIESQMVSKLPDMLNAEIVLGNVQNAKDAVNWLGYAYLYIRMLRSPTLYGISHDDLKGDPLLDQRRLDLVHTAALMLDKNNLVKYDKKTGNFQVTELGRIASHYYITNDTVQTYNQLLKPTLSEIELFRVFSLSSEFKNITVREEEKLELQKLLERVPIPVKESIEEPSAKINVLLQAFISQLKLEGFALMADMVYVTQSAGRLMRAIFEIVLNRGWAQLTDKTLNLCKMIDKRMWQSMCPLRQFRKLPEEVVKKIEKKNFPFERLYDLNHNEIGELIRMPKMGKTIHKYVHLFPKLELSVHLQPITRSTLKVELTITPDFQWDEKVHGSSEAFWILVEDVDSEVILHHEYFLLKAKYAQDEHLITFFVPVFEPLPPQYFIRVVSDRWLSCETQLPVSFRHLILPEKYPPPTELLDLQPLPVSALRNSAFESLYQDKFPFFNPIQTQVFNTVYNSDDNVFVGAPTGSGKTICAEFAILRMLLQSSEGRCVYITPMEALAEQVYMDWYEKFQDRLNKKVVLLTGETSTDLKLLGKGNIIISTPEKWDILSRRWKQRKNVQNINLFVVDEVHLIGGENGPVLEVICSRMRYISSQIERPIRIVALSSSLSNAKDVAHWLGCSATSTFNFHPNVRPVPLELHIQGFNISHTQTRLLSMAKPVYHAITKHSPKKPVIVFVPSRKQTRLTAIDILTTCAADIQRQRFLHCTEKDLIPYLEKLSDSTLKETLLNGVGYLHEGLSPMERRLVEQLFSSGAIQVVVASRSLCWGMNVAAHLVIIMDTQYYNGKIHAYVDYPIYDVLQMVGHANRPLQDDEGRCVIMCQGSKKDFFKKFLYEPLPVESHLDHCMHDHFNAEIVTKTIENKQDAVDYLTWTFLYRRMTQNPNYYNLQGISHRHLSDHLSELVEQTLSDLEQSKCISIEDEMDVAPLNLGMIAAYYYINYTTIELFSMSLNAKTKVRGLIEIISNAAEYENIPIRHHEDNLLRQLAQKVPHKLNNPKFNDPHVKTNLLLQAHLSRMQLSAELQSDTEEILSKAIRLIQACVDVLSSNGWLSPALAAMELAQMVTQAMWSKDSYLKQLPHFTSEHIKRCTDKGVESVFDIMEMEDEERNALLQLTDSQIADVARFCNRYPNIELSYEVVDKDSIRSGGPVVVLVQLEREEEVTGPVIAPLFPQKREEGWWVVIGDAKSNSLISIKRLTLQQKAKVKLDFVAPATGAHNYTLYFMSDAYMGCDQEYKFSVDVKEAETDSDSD
Chain of Eukaryotic initiation factor 4A-II (Q14240 whole entry): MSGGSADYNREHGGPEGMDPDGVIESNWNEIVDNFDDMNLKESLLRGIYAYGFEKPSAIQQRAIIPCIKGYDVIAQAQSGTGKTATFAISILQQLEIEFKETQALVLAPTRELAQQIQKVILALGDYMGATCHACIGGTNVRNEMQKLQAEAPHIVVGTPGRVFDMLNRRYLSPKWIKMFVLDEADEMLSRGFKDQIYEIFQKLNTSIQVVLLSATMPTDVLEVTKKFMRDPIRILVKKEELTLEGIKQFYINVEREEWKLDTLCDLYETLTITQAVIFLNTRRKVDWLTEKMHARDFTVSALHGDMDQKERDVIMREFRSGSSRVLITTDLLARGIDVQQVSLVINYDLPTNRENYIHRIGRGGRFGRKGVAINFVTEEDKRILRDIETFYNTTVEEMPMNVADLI

CC(C)c1ccc2cc(C(=O)O)[nH]c2c1
IC50 [1]: 27 µM
Kd [2]: 5.4 µM

CC(C)c1ccc2c(F)c(C(=O)O)[nH]c2c1
IC50 [1]: 20 µM

COC(=O)c1cc2ccc(C(C)C)cc2[nH]1
IC50 [1]: > 100 µM

CC(C)c1cc2[nH]c(C(=O)O)cc2cc1F
IC50 [1]: 30 µM

Cc1ccc2cc(C(=O)O)[nH]c2c1
IC50 [1]: > 100 µM

CC(C)c1ccc2cc(C(N)=O)[nH]c2c1
IC50 [1]: > 100 µM

CC(C)c1cc(F)c2cc(C(=O)O)[nH]c2c1
IC50 [1]: 5 µM

CC(C)c1ccc2cc(-c3nnn[nH]3)[nH]c2c1
IC50 [1]: 30 µM

CC(C)c1ccc2cc(C(=O)O)n(C)c2c1
IC50 [1]: > 100 µM

CC(C)c1ccc2[nH]c(C(=O)O)cc2c1
IC50 [1]: > 100 µM

CC(C)c1cc(Cl)c2cc(C(=O)O)[nH]c2c1F
IC50 [3]: > 100 µM
IC50 [1]: 0.97 µM
IC50 [4]: > 100 µM
IC50 [5]: > 100 µM
IC50 [6]: > 100 µM
Ki [7]: 430 nM
IC50 [8]: 360 nM
Kd [9]: 62 nM
Kd [2]: 0.2 µM
deltaH [10]: -26 kcal/mol
T1/2 [11]: 8.9 s
deltaG [12]: -9.9 kcal/mol
-TdeltaS [13]: 16.1 kcal/mol

CC(C)c1ccc2cc(C(=O)O)[nH]c2c1Cl
IC50 [1]: > 100 µM

CC(C)c1cc(Cl)c2cc(C(=O)O)[nH]c2c1
IC50 [3]: > 100 µM
IC50 [1]: 1.9 µM

CCc1ccc2cc(C(=O)O)[nH]c2c1
IC50 [1]: > 100 µM

CC(C)c1ccc2cc(C(=O)O)[nH]c2c1F
IC50 [3]: > 100 µM
IC50 [1]: 6.9 µM

O=C(O)c1cc2ccc(Cl)cc2[nH]1
IC50 [1]: > 100 µM

C[C@H]1C[C@@]2(O[C@H]3C[C@H]4[C@@H]5CC[C@H]6C[C@H](O)CC[C@]6(C)[C@H]5[C@@H](O)C[C@]4(C)[C@H]3[C@@]2(C)O)OC1(C)C [HIPPURISTANOL]
IC50 [3]: 3.1 µM
IC50 [1]: 40 µM
IC50 [4]: 18 µM
IC50 [5]: > 30 µM
IC50 [6]: > 30 µM
Kd [2]: 50 µM
T1/2 [11]: 12.2 s

CC(C)c1cccc2cc(C(=O)O)[nH]c12
IC50 [1]: > 100 µM
